Broadly, the pIC50 is −log10 of the IC50, conventionally taken in molar units.

pIC50: −log10 of the molar value. Where a SMILES comes first, the peptide text is derived from it. [ ]: non-standard residue; d: D form. The star is where a group is joined. X1 = C=C[C@@H](CC(O)[C@H](CC1CCCCC1)N*)C(C)C; Boc = CC(C)(C)OC(=O)*

These results are taken from patent US5250517A (Hoffmann-La Roche Inc., priority 1987, dated 1993).

The target of this assay is T1, human renin (Homo sapiens, UniProt P00797).
T1 sequence (P00797 67-406): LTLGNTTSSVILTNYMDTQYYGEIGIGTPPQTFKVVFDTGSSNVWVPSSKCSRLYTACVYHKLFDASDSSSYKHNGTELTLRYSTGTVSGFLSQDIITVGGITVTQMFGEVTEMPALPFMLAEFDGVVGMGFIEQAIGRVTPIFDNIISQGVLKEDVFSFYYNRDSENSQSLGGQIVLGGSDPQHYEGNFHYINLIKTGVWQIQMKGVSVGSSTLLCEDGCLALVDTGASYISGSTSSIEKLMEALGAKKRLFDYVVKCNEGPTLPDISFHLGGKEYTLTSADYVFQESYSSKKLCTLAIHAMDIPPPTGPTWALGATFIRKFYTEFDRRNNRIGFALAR
The experiment in a line: In Vitro Test With Pure Human Renin. The assay is classed as biochemical. As to conditions: human tetradecapeptide renin substrate (hTD), pH 7.4, 3 hours at 37° C. vs 4° C., angiotensin I by RIA. The protocol:
In Vitro Test With Pure Human Renin
The test is carried out in Eppendorf test tubes. The incubation mixture consists of (1) 100 μl of human renin in buffer A (0.1M sodium phosphate solution, pH 7.4, containing 0.1% bovine serum albumin, 0.1% sodium azide and 1 mM ethylenediaminetetraacetic acid), sufficient for a renin activity of 2-3 ng of angiotensin I/ml/hr.; (2) 145 μl of buffer A; (3) 30 μl of 10 μM human tetradecapeptide renin substrate (hTD) in 10 mM hydrochloric acid; (4) 15 μl of dimethyl sulfoxide with or without inhibitor and (5) 10 μl of a 0.03 molar solution of hydroxyquinoline sulfate in water.
The samples are incubated for 3 hours at 37° C. or 4° C. in triplicate. 2×100 μl samples per experimental test tube are used in order to measure the production of angiotensin I via RIA (standard radioimmunoassay; clinical assay solid phase kit). […] The production of angiotensin I in determined by the difference between the experiment at 37° C. and that at 4° C.
The following controls are carried out:
(a) Incubation of hTD samples without renin and without inhibitor at 37° C. and 4° C. The difference between these two values gives the base value of angiotensin I production.
(b) Incubation of hTD samples with renin, but without inhibitor at 37° C. and 4° C. The difference between these values gives the maximal value of angiotensin I production.
In each sample, the base value of the angiotensin I production is subtracted from the angiotensin I production which is determined. The difference between the maximal value and the base value gives the value of the maximal substrate hydrolysis (=100%) by renin.
The IC50 values are determined from a linear regression curve from a logit-log plot.
In turn, `C=C[C@@H](C[C@H](O)[C@H](CC1CCCCC1)NC(=O)[C@H](Cc1c[nH]cn1)NC(=O)C(CC(=O)NCCN(CC(=O)OC(C)(C)C)C(=O)OC(C)(C)C)Cc1ccccc1)C(C)C` (mixture of isomers) [Compound I, t-butyloxycarbonyl [2-[(R and S)-3-[[(S)-1-[[(1S,2S,4S)-1-(cyclohexylmethyl)-2-hydroxy-4-isopropyl-5-hexenyl]carbamoyl]-2-imidazol-4-ylethyl]-carbamoyl]-4-phenylbutyramido]ethyl]glycine t-butyl ester] had a pIC50 of 7.34.
The value for `CC[C@@H](C[C@H](O)[C@H](CC1CCCCC1)NC(=O)[C@H](Cc1c[nH]cn1)NC(=O)[C@@H](CC(=O)NC(C)(CO)CO)Cc1ccccc1)C(C)C` [G, (S)-N-[(1S,2S,4S)-1-(cyclohexylmethyl)-2-hydroxy-4-isopropylhexyl]-α-[[[[(R)-α-2-hydroxy-1-(hydroxymethyl)-1-methylethyl]carbamoyl]methyl]hydrocinnamamido]imidazole-4-propionamide] was 7.82; that for `C=C[C@@H](C[C@H](O)[C@H](CC1CCCCC1)NC(=O)[C@H](Cc1c[nH]cn1)NC(=O)CC(C)C)C(C)C` [C] was 8.05.
The value for `CC[C@@H](C[C@H](O)[C@H](CC1CCCCC1)NC(=O)[C@H](Cc1c[nH]cn1)NC(=O)[C@H](Cc1ccccc1)NC(=O)OC(C)(C)C)C(C)C` [E, t-butyl [(S)-α-[[(S)-1-[[(1S,2S,4S)-1-cyclohexylmethyl-2-hydroxy-4-isopropylhexyl]carbamoyl]-2-imidazol-4-ylethyl]carbamoyl]phenethyl]carbamate] was 8.10; that for `C=C[C@@H](C[C@H](O)[C@H](CC1CCCCC1)NC(=O)[C@H](Cc1c[nH]cn1)NC(=O)[C@@H](CC(=O)NC(C)(CO)CO)Cc1ccccc1)C(C)C` [K, (S)-N-[(1S,2S,4S)-1-(cyclohexylmethyl)-2-hydroxy-4-isopropyl-5-hexenyl]-α-[(R)-α-[[[2-hydroxy-1-(hydroxymethyl)-1-methylethyl]carbamoyl]methyl]hydrocinnamamido]imidazole-4-propionamide] was 7.77; that for `CC[C@@H](C[C@H](O)[C@H](CC1CCCCC1)NC(=O)[C@H](Cc1c[nH]cn1)NC(=O)C(CC(=O)N1CCOCC1)Cc1cccc2ccccc12)C(C)C` (some centres unmarked) [H] was 8.39.
The value for `C=C[C@@H](C[C@H](O)[C@H](CC1CCCCC1)NC(=O)[C@H](Cc1c[nH]cn1)NC(=O)[C@@H](CC(N)=O)Cc1ccccc1)C(C)C` [N, (S)-α-[(R)-α-(carbamoylmethyl)hydrocinnamamido]-N-[(1S,2S,4S)-1-(cyclohexylmethyl)-2-hydroxy-4-isopropyl-5-hexenyl]imidazole-4-propionamide] was 6.85; that for `C=C[C@@H](C[C@H](O)[C@H](CC1CCCCC1)NC(=O)[C@H](Cc1c[nH]cn1)NC(=O)[C@H](Cc1ccccc1)NC(=O)[C@H]1CCCN1C(=O)OC(C)(C)C)C(C)C` [B, (2S,3S,5S)-2-(Boc--D--Pro--Phe--His--NH)-1-cyclohexyl-5-isopropyl-6-hepten-3-ol] was 9.52; that for `CC[C@@H](C[C@H](O)[C@H](CC1CCCCC1)NC(=O)[C@H](Cc1c[nH]cn1)NC(=O)C(CC(=O)C1CCCC1)Cc1ccccc1)C(C)C` (mixture of isomers) [Q] was 7.17.
In turn, `C=C[C@@H](C[C@H](O)[C@H](CC1CCCCC1)NC(=O)[C@H](Cc1c[nH]cn1)NC(=O)[C@@H](CC(=O)N(C)C)Cc1ccccc1)C(C)C` [O, (S)-N-[(1S,2S,4S)-1-(cyclohexylmethyl)-2-hydroxy-4-isopropyl-5-hexenyl]-α-[(R)-α-[(dimethylcarbamoyl)-methyl]hydrocinnamamido]imidazole-4-propionamide] gave a pIC50 of 7.92.
Consider `C=C[C@@H](C[C@H](O)[C@H](CC1CCCCC1)NC(=O)[C@H](Cc1c[nH]cn1)NC(=O)C(CC(=O)C1CCCC1)Cc1ccccc1)C(C)C` (mixture of isomers) [P, (S)-N-[(1S,2S,4S)-1-(cyclohexylmethyl)-2-hydroxy-4-isopropyl-5-hexenyl]-α-[(RS)-α-[(cyclopentyl-carbonyl)methyl]hydrocinnamamido]imidazole-4-propionamide], for which the pIC50 is 7.34.
The figure for `C=C[C@@H](C[C@H](O)[C@H](CC1CCCCC1)NC(=O)[C@H](Cc1c[nH]cn1)NC(=O)[C@H](Cc1ccccc1)NC(=O)OC(C)(C)C)C(C)C` [D, t-butyl [(S)-α-[[(S)-1-[[(1S,2S,4S)-1-cyclohexylmethyl-2-hydroxy-4-isopropyl-5-hexenyl]carbamoyl]-2-imidazol-4-ylethyl]carbamoyl]phenethyl]carbamate] is 8.12; for `C=C[C@@H](CC(O)[C@H](CC1CCCCC1)NC(=O)[C@H](Cc1c[nH]cn1)NC(=O)[C@H](Cc1ccccc1)NC(=O)[C@@H]1CCCN1C(=O)[C@H]1CCCN1C(=O)OC(C)(C)C)C(C)C` (stereo partly drawn) [R, (2S,5S)-2-(Boc--D--Pro--Pro--Phe--His--NH)-1-cyclohexyl-5-isopropyl-6-hepten-3-ol] (Boc-[dP]PFH-X1) it is 8.77.
The value for `C=C[C@@H](C[C@H](O)[C@H](CC1CCCCC1)NC(=O)[C@H](Cc1c[nH]cn1)NC(=O)[C@H](Cc1ccccc1)NC(=O)N1CCOCC1)C(C)C` [M] was 7.68; that for `C=C[C@@H](C[C@H](O)[C@H](CC1CCCCC1)NC(=O)[C@H](Cc1c[nH]cn1)NC(=O)[C@@H](CC(=O)C(C)(C)C)Cc1ccccc1)C(C)C` [L] was 8.15.
The compound `CC[C@@H](C[C@H](O)[C@H](CC1CCCCC1)NC(=O)[C@H](Cc1c[nH]cn1)NC(=O)[C@@H](CC(=O)[C@@H]1CCCN1C(=O)OC(C)(C)C)Cc1ccccc1)C(C)C` [F, t-butyl (S)-2-[[(R)-α-[[(S)-1-[[(1S,2S,4S)-1-(cyclohexylmethyl)-2-hydroxy-4-isopropylhexyl]carbamoyl]-2-imidazol-4-ylethyl]carbamoyl]phenethyl]acetyl]-1-pyrrolidinecarboxylate] had a pIC50 of 8.40.
Compound `CC[C@@H](C[C@H](O)[C@H](CC1CCCCC1)NC(=O)[C@H](Cc1c[nH]cn1)NC(=O)[C@H](Cc1ccccc1)NC(=O)[C@H]1CCCN1C(=O)OC(C)(C)C)C(C)C` [A] had a pIC50 of 8.46.
